Holding throughout (assay): NCI-60 cell line screen, 48 h
Test [1] deals with SK-OV-3 ovarian.
For test [2], the system named is UO-31 renal.
The subject of test [3] is CCRF-CEM leukemia.
The subject of test [4] is BT-549 breast.
Test [5] concerns COLO 205 colon.
Test [6] concerns SF-268 CNS.
In test [7] the test system is A549 NSCLC.
In test [8] the test system is SK-MEL-5 melanoma.
The subject of test [9] is OVCAR-5 ovarian.
Test [10] has as its system MALME-3M melanoma.
In test [11] the test system is HOP-62 NSCLC.

The structures appear in SMILES notation.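 Cultured in 96-well plates, cells were exposed to test compound for 48 hours across five concentrations. The concentration for 50% growth inhibition is given as GI50. TGI: concentration producing complete growth inhibition.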 Bounds are passed on as bounds.

This passage reports TGI and GI50 results from PubChem BioAssay (NCI).

`COC(=O)C12CCC(C(=O)OC)(Cc3c(c4ccccc4n3S(=O)(=O)c3ccccc3)C1)C2=O` (stereo not given): the TGI in test [1], in [2], in test [3], in [4], in [5] and in test [6] was more than 100 µM throughout. In addition, the TGI in test [7] was more than 100 µM; in test [8], more than 100 µM; in test [9] it was more than 94.6 µM; in test [10], more than 100 µM; in test [11] it was more than 100 µM.
Take `CN1CCc2c(sc3nc(Nc4ccccc4)n(N)c(=O)c23)C1`: the TGI in [2], in test [3], in [4], in test [5], in test [6] and in test [7] was more than 100 µM throughout. Besides, the TGI in [8], in [9] and in [11] was more than 100 µM in each case.
For the molecule `C/C(Cl)=N\OC(=O)Nc1ccc([N+](=O)[O-])cc1`, the TGI in test [1] was more than 32.6 µM; in test [2], 11.4 µM; in [3] it was more than 100 µM; in test [4] it was 66.7 µM; in [5], 5.85 µM; in [6], 41.8 µM. Moreover, the TGI in test [7] is 47.5 µM; in [8], 31.2 µM; in [9], 30.8 µM; in test [10] it was 7.95 µM; in test [11] it was more than 100 µM.
`O=c1oc2ncccc2n1Cc1ccc([N+](=O)[O-])cc1`: the TGI in test [1], in [2], in test [3], in test [4], in test [5] and in test [6] was more than 100 µM in each case. The TGI in [7], in [8], in test [9], in [10] and in [11] was more than 100 µM throughout.
For `CC(C)OP(=O)(OC(C)C)C(C(F)(F)F)C(F)(F)F`, the TGI in [1], in test [2], in [3], in test [4], in test [5] and in test [6] was more than 100 µM each time. Further, the TGI in test [7], in [8], in test [9], in test [10] and in [11] was more than 100 µM each time.
`CN1CN(c2ccccc2)C2(CCNCC2)C1=O`: the TGI in test [1], in [2], in [3], in test [4], in test [5] and in test [6] was more than 100 µM throughout. Besides, the TGI in [7], in test [8], in test [9], in [10] and in test [11] was more than 100 µM in each case.
Consider `CN(Cc1cnc2nc(N)nc(N)c2n1)c1ccc(C(=O)NC(CCS(=O)(=O)O)C(=O)O)cc1` (stereo not given), for which the TGI was more than 100 µM in test [1]; more than 100 µM in [2]; 0.739 µM in [3]; more than 100 µM in [4]; more than 100 µM in test [5]; more than 100 µM in test [6]. Besides, the TGI in test [7], in test [8], in test [10] and in test [11] was more than 100 µM in each case. In addition, the GI50 in [6] is 0.972 µM.
Take `CCCCC1Cc2cc(O)ccc2-c2n1c1cc(O)ccc1[n+]2C` (stereo not given) (tested in a mixture with another compound): the TGI was more than 100 µM in test [1]; more than 100 µM in test [2]; more than 100 µM in test [3]; more than 100 µM in test [4]; 44.2 µM in [5]; more than 59.5 µM in [6]. Moreover, the TGI is more than 100 µM in test [7]; 22 µM in test [8]; more than 100 µM in test [9]; 73.4 µM in test [10]; more than 100 µM in [11].
Take `CC1=NN(c2nc(N)nc(CS(C)(=O)=O)n2)C(C)(C)C1`: the TGI in [1], in [2], in test [3], in test [4], in test [5] and in test [6] was more than 100 µM in each case. Moreover, the TGI in [8] and in [11] was more than 100 µM each time.
In the case of `C=C1c2nc3ccccc3n2C=C(c2ccc(Cl)cc2)N1c1ccc(OCCN2CCOCC2)cc1`, the TGI is more than 100 µM in test [1]; more than 100 µM in test [2]; more than 100 µM in test [4]; 98.6 µM in test [5]; more than 100 µM in test [6]; more than 100 µM in [7]. Also, the TGI in test [8] is 71.5 µM; in [9], more than 100 µM; in test [10], more than 100 µM; in test [11], more than 100 µM.
On to `Cc1csc2c(P(=O)(OC(C)C)OC(C)C)c(-c3ccccc3)cn12`, for which the TGI turned out to be 33 µM in [1]; 31.8 µM in test [2]; 37.2 µM in test [3]; 36 µM in [4]; 37.8 µM in test [5]; 32 µM in test [6]. The TGI was 32.4 µM in test [7]; 29.7 µM in test [8]; 28.8 µM in test [9]; 36.1 µM in [10]; 33.1 µM in test [11].
As for `O=[N+]([O-])c1cc2n[nH]nc2c2nonc12`, the TGI is more than 100 µM in test [1]; 38.6 µM in test [2]; 59.9 µM in test [3]; 24.1 µM in test [4]; 71.5 µM in [5]; more than 100 µM in test [6]. Besides, the TGI is more than 100 µM in test [7]; 24.7 µM in [8]; 76.5 µM in test [9]; more than 100 µM in test [10]; more than 100 µM in [11].
For the molecule `C=C1C(=O)OC2/C=C(\C)CC/C=C(/C)CC(OC(=O)/C(=C/CO)CO)C12` (stereo not given), the TGI in test [1] is more than 100 µM; in test [2] it was 33.8 µM; in test [3], more than 100 µM; in test [4], 30.9 µM; in test [5], 33 µM; in test [6], 77.5 µM. For the same molecule, the TGI in [7] was more than 100 µM; in [8] it was 31.2 µM; in test [9], 36.8 µM; in test [10], 42.2 µM; in test [11], more than 100 µM.
Turning to `O=C(ON=c1c2ccccc2ccc2ccccc12)c1cc([N+](=O)[O-])cc([N+](=O)[O-])c1`, the TGI is more than 100 µM in test [1]; more than 100 µM in test [2]; 94 µM in test [3]; more than 100 µM in [4]; more than 100 µM in [5]; more than 100 µM in [6]. The TGI in test [7] is more than 100 µM; in test [8], more than 100 µM; in test [9], more than 100 µM; in test [10], 77.4 µM; in [11], more than 100 µM.
For `NS(=O)(=O)c1nnc(NC(=O)CCC(=O)O)s1`, the TGI in [1], in test [2], in [4], in test [5], in [6] and in [7] was more than 100 µM throughout. The TGI in test [8], in test [9], in test [10] and in test [11] was more than 100 µM each time.
Consider `N#CC12COC3(CCCCC3C1(C#N)C#N)OC2=N` (stereo not given), for which the TGI in test [1] was more than 100 µM; in [2], 30.6 µM; in test [3] it was 22.3 µM; in [4], 30.5 µM; in test [5], 19.2 µM; in test [6], 25.3 µM. Moreover, the TGI came out at 66.8 µM in test [7], 23.5 µM in test [8], 30.4 µM in test [9] and 35.6 µM in [10].
Turning to `CCN(CC)CCN1C(=O)c2cccc3c(-c4ccc5c(c4)ncn5C4CCCCC4)ccc(c23)C1=O`, the GI50 is 1.97 µM in [1]; 0.583 µM in test [2]; 1.43 µM in test [3]; 0.922 µM in [4]; 1.32 µM in test [8]; 1.72 µM in test [9]. In addition, the GI50 in test [10] was 1.38 µM; in test [11] it was 1.46 µM. Besides, the TGI in test [1] stood at 4.18 µM; in test [2], 2.28 µM; in test [3], 11.6 µM; in [4] it was 2.3 µM; in test [8], 2.61 µM; in test [9], 4.04 µM. Moreover, the TGI in test [10] worked out at 2.81 µM; in test [11], 3.05 µM.
`O=C1CCc2c3c(c4c([nH]c5ccccc54)c2CC1)C(=O)NC3=O`: the TGI in test [2] was 14.7 µM; in [3], more than 100 µM; in test [4], 28.2 µM; in test [5], more than 100 µM; in test [6], more than 100 µM; in [7], more than 100 µM. Further, the TGI in test [8] is 5.77 µM; in test [9] it was more than 100 µM; in [10], 12.6 µM; in test [11], more than 100 µM.
As to `CC(=O)OCC1C(C(C)OC(C)=O)CCC2C1CCC1(C)C(OC(C)=O)CCC21` (stereo not given), the TGI is more than 100 µM in test [2]; 42.6 µM in test [3]; 24.5 µM in [4]; 52.5 µM in test [6]; 39.4 µM in test [7]; 30.6 µM in [8]. Besides, the TGI was more than 100 µM in test [9], 37 µM in [10] and 38.5 µM in test [11].
In the case of `O=C(N/N=C(/COc1cccc(Cl)c1)N=Cc1ccncc1)c1ccncc1`, the TGI in test [1], in test [3], in test [4], in [5], in test [6] and in test [7] was more than 100 µM each time. In addition, the TGI in [9], in test [10] and in [11] was more than 100 µM each time.
Regarding `O=C(N=Nc1ccc([N+](=O)[O-])cc1)NNc1ccc([N+](=O)[O-])cc1`, the TGI in test [2] is 32.6 µM; in test [3], 47.1 µM; in [4] it was more than 100 µM; in test [6] it was 80.1 µM; in test [7], more than 100 µM; in [8], 31.2 µM. Moreover, the TGI turned out to be 48 µM in test [9], 53.1 µM in test [10] and 34 µM in test [11].
Regarding `CC1=C(C)C(=O)OC(C(C)(O)C2(O)CCC3(O)C4CC(Cl)C5(O)C(O)C=CC(=O)C5(C)C4CCC32C)C1` (stereo not given), the TGI is more than 100 µM in [1]; more than 100 µM in test [2]; 53.4 µM in test [3]; more than 100 µM in [4]; 42.8 µM in test [5]; more than 100 µM in [6]. The TGI in [7], in test [9], in test [10] and in [11] was more than 100 µM in each case.
Take `Cn1c(-c2ccccc2)cc(-c2ccc3c(c2)OCO3)c1-c1cccs1`: the TGI in test [1], in [2], in test [3], in [4], in test [5] and in [6] was more than 100 µM throughout. The TGI in test [7], in test [8], in test [9] and in test [11] was more than 100 µM each time.
In the case of `COc1cc(N=C(N)N=C(N)N)c2ncccc2c1`, the TGI in test [1], in [2], in test [4], in test [5], in test [6] and in [7] was more than 100 µM each time. Further, the TGI in test [8], in test [9], in test [10] and in [11] was more than 100 µM in each case.
Take `NC(CCCCCP(=O)(O)O)C(=O)O` (stereo not given): the TGI in test [1], in test [2], in [3], in test [4], in [5] and in test [6] was more than 100 µM in each case. The TGI in [7], in test [8] and in test [9] was more than 100 µM each time.
